In patent US20070254907A1, “COMPOSITIONS AND METHODS FOR CONTROLLING INFESTATION” (HATCHTECH PTY LTD, priority 2003, published 2007):
Entries after “also recorded” stand apart in the source; their conditions may differ.

Experiments:
[1] = test system: lice eggs; assay: whole plant or invertebrate; type: in vivo; conditions: Lice (L)
[2] = test system: Plutella xylostella eggs; assay: whole plant or invertebrate; type: in vivo; conditions: for Ovicidal activity % / Activity class 0 = inactive 1 = low 2 = med 3 = high: Plutella (P); for % Inhibition: relative to controls
Experimental: The ovicidal efficacy of 2-acetyl-1-tetralone was also tested against Plutella eggs.

[3] = test system: Plutella xylostella eggs; assay: Reversal of inhibition of Plutella egg hatching by added FeSO4; type: in vivo
Experimental: (§1) Within 24 hours of collection the following experimental design was chosen. Batches of eggs were exposed to 10 mM 6,6′-dimethyl-2,2′-dipyridyl for 2 seconds while additional batches of eggs were exposed to the solvent only (Methanol) for 2 seconds. All batches of eggs were allowed to air dry for 20 minutes at room temperature. The eggs were then given a 2 second exposure to FeSO4 at either 10, 5 or 1 mM, air dried and put in the incubator at 24° C. and allowed to hatch over the next 6 days. In addition, a positive control of 10 mM 6,6′-dimethyl-2,2′-dipyridyl was set up in which eggs were exposed to this compound for 2 seconds, air dried and placed in the incubator.
as §1, with “10 mM 5,5′-dimethyl-2,2′-dipyridyl for 2” for “10 mM 6,6′-dimethyl-2,2′-dipyridyl for 2”, “FeSO4 at 10, 5” for “FeSO4 at either 10, 5”, “put in an incubator at” for “put in the incubator at”, “of 10 mM, 5,5′-dimethyl-2,2′-dipyridyl was set” for “of 10 mM 6,6′-dimethyl-2,2′-dipyridyl was set”

[4] = test system: B. ovis eggs; assay: Egg hatching in Bovicola ovis; type: in vivo; conditions: 10 mM; for Number hatched in different replicates: 10 eggs per replicate; for % Inhibition: in comparison to the controls; for Number unhatched: per replicate
Experimental: B. ovis eggs were collected from the wool of sheep that were infested with this parasite. The eggs were collected using forceps and with the aid of a dissecting microscope and placed in 24 well tissue culture plates in duplicate lots of 10 eggs per replicate. The eggs were then exposed to either methanol alone (control) or the test compounds for either 10 minutes or 1 minute before being removed from the wells and placed into individual glass vials containing a diet at the base of the tube. The tubes were placed in plastic containers containing a salt solution (to keep humidity constant at 68%) and the containers maintained at a temperature 32° C. The eggs were monitored for hatching over the following 12 days and % hatch inhibition determined in comparison to the controls.

[5] = test system: H. contortus eggs; assay: Egg hatching in Haemonchus contortus; type: in vivo
Experimental: In an attempt to improve control of H. contortus the effects of the compound 5,5′-dimethyl-2,2′-dipyridyl was examined on H. contortus eggs. Eggs were recovered from the faeces of infected sheep using a standard sucrose floatation method. The eggs were corrected to a density of approximately 2,500 eggs per mL and were then exposed to varying concentrations of compound and incubated for 48 hours at 25° C. The eggs were then examined to determine the ovicidal efficacy of the compound in comparison to untreated control and a solvent only control.
In addition, the ovicidal efficacy of the compound 2-acetyl-1-tetralone was examined against H. contortus (FIG. 10). The same protocol was used as described for 5,5′-dimethyl-2,2′-dipyridyl.

[6] = test system: Lice (L) and Plutella (P) eggs; conditions: Lice (L) and Plutella (P)
[7] = test system: Helicoverpa armigera eggs; assay: Egg hatching of Helicoverpa armigera; conditions: 10 mM
Experimental: A range of concentrations were made up in water and the eggs placed in the solutions for approximately 2-10 seconds. The eggs which had been laid on cloth were then blotted dry and placed in an incubator at 26° C. for 3-4 days until hatch. Hatch rates were then assessed compared to a water only treated control (FIG. 5).
The compound was dissolved in 100% diethoxyglycol and diluted to a final concentration of 1% in water.
Several hundred Helicoverpa armigera eggs (Tatura×Toowoomba strains) were collected, that had been laid on fine mesh cloth over a 24 hour period.
Batches of Helicoverpa eggs were exposed to a specific inhibitor solution for between 2-10 seconds the excess solution drained by blotting with dry tissue paper. The egg masses were then placed in a humid box at 25 degrees until egg hatch. Control eggs were exposed to absolute methanol as described above. At day 6 post laying the eggs were assessed from the different treatments and the percentage of egg hatch determined relative to the control as shown in Table 12.
Batches of Helicoverpa eggs were then exposed to a specific inhibitor solution for between 2-10 seconds the excess solution drained by blotting with dry tissue paper. The egg masses were then placed in a humid box at 25° C. until egg hatch. Control eggs were exposed to absolute methanol as described above. At day 6 post laying the eggs were assessed from the different treatments and the percentage of egg hatch determined relative to the control as shown in Table 13.

[8] = Table 10, eggs laid on cloth, 1 mM
[9] = Table 10, eggs laid on cloth, 10 mM
[10] = Table 11, eggs laid on parafilm, 1 mM
[11] = Table 11, eggs laid on parafilm, 10 mM
[12] = 10 mM chelator followed by 2 second exposure to 1 mM FeSO4
[13] = 10 mM chelator followed by 2 second exposure to 5 mM FeSO4
[14] = 10 mM chelator followed by 2 second exposure to 10 mM FeSO4
[15] = 10 mM chelator followed by 2 second exposure to MEOH
[16] = 10 mM chelator, 2 s, (+ve) control without second exposure

Cc1ccc(-c2ccc(C)cn2)nc1 [5,5′-dimethyl-2,2′-dipyridyl]
Ovicidal activity % ([1]; 30 mM): 100.00%
Activity class 0 = inactive 1 = low 2 = med 3 = high ([1]; listed as of 30 mM): 2 (a pLD50 value between 3 and 4 is considered moderately active (Class 2))
effect on egg hatching of Plutella xylostella (words) ([2]; 10 and 1 mM): significantly inhibit egg hatching
Ovicidal activity % ([2]; 0.1 mM): 57.00%
Ovicidal activity % ([2]; 1 mM): 98.00%
Activity class 0 = inactive 1 = low 2 = med 3 = high ([2]; listed as of 0.1 mM): 3 (a pLD50 greater than 4 is considered strongly active (Class 3))
Activity class 0 = inactive 1 = low 2 = med 3 = high ([2]; listed as of 1 mM): 3 (a pLD50 greater than 4 is considered strongly active (Class 3))
Number hatched [2, 8]: 5
Number unhatched [2, 8]: 22
% Inhibition [2, 8]: 78%
Number hatched [2, 9]: 0
Number unhatched [2, 9]: 21
% Inhibition [2, 9]: 100%
Number hatched [2, 10]: 18
Number unhatched [2, 10]: 133
% Inhibition [2, 10]: 88%
Number hatched [2, 11]: 0
Number unhatched [2, 11]: 138
% Inhibition [2, 11]: 100%
Number hatched [3, 12]: 39
Number unhatched [3, 12]: 0
% Inhibition ([3]; 10 mM chelator followed by 2 second exposure to 1 mM FeSO4, relative to FeSO4 controls): 0%
Number hatched [3, 13]: 25
Number unhatched [3, 13]: 0
% Inhibition ([3]; 10 mM chelator followed by 2 second exposure to 5 mM FeSO4, relative to FeSO4 controls): 0%
Number hatched [3, 14]: 23
Number unhatched [3, 14]: 2
% Inhibition ([3]; 10 mM chelator followed by 2 second exposure to 10 mM FeSO4, relative to FeSO4 controls): 8%
% Inhibition [3, 15]: 55%
Number hatched [3, 15]: 16
Number unhatched [3, 15]: 19
% Inhibition [3, 16]: 100%
Number hatched [3, 16]: 0
Number unhatched [3, 16]: 38
effect of added Fe in FeSO4 on the chelator's inhibition of egg hatching ([3]; 10 mM chelator, then FeSO4 10, 5 or 1 mM): able to reverse the effects
inhibition of egg hatching after MeOH alone post exposure ([3]; 10 mM chelator, then MeOH): significant degree of inhibition of egg hatching
egg hatching in the louse ([4]; 10 or 1 minute exposure): completely inhibited
Number hatched in different replicates ([4]; 1 minute exposure): Rep 1. 0; also recorded: Rep 2. 0
% Inhibition ([4]; 1 minute exposure): 100%
Number unhatched ([4]; 1 minute exposure): 10
Number hatched in different replicates ([4]; 10 minute exposure): Rep 2. 0; also recorded: Rep 1. 0
% Inhibition ([4]; 10 minute exposure): 100%
Number unhatched ([4]; 10 minute exposure): 10
ovicidal efficacy on H. contortus eggs ([5]; 180 and 18 ug/mL (1 and 0.1 mM), 48 hours at 25° C. (FIG. 8)): potently ovicidal
effectiveness at inhibiting H. contortus egg hatching compared to ivermectin ([5]; FIG. 8 versus FIG. 9): ~10 ×
Ovicidal activity % ([6]; 10 mM): 100.00%
Activity class 0 = inactive 1 = low 2 = med 3 = high ([6]; listed as of 10 mM): 3 (a pLD50 greater than 4 is considered strongly active (Class 3))
effect on egg hatching of Helicoverpa armigera (words) [7]: significant inhibition of egg hatching
Number hatched ([7]; Table 13): 0
Number unhatched ([7]; Table 13): 42
% Inhibition ([7]; Table 13, relative to the control (100% MeOH)): 100%
